Biological target: T1, ApL (A. pediades laccase) (Agrocybe pediades, UniProt A0A8H4QKE8, V194E/N433D)
T1 construct: gene D9613_012768
Details: read-out: IC50 (mM or v/v % ^a); DM variant; ABTS about 3 mM, citrate-phosphate pH 3; fluoride, TNC site

F [NaF]
IC50: 0.051 ± 0.002 mM

— PMC8147764, “Heterologous Expression, Engineering and Characterization of a Novel Laccase of Agrocybe pediades with Promising Properties as Biocatalyst” (Journal of Fungi, 2021)
